Measured values as given in patent US20220096461A1, “LIQUID ORAL DOSAGE FORMULATIONS OF METHYLNALTREXONE” (Bausch Health Ireland Limited, priority 2019, published 2022).

Key:
[1] = Partition coefficient between octanol and water (Log P); assay type: physicochemical; conditions: n-octanol/water; ratios 9:1, 7:3, 1:1; HPLC
Protocol: To determine the partition coefficient of each ion pair, about 15 mg of each ion pair was dissolved in separate 100 ml portions of n-octanol (previously saturated with water). Three n-octanol solutions were prepared for each ion pair. Mixtures having three different volumetric ratios of n-octanol to water (9:1, 7:3, and 1:1) were prepared by adding water and agitating the mixtures on a bench top agitator for two hours. After agitation, samples from each mixture were centrifuged for 10 min at 10,000 rpm to separate aqueous and n-octanol phase. The concentration of methylnaltrexone in the aqueous and n-octanol phases was determined by HPLC. Log P was calculated from the ratio of the drug concentration in n-octanol to the drug concentration in water.

[2] = system: opioid-induced constipation; conditions: 12 mg subcutaneous injection; patients with chronic non-cancer pain; cited from earlier work

| Compound | LogP [1] | Patients with three or more spontaneous bowel movements each week for four weeks [2] [%] |
| --- | --- | --- |
| CCCCC(CC)COC(=O)CC(C(=O)OCC(CC)CCCC)S(=O)(=O)[O-].C[N+]1(CC2CC2)CCC23c4c5ccc(O)c4OC2C(=O)CCC3(O)C1C5 (stereo not drawn) [Methylnaltrexone - Docusate] | 1.67 |  |
| C[N@+]1(CC2CC2)CC[C@]23c4c5ccc(O)c4O[C@H]2C(=O)CC[C@@]3(O)[C@H]1C5 [methylnaltrexone, (R)—N-methylnaltrexone] |  | 59 |
| Methylnaltrexone - Lauryl Sulfate | 1.23 |  |
